# What was measured:
# [1] = target: PI3K delta (Homo sapiens (Human), UniProt O00329); test: Enzymatic PI3K delta isoform inhibition (lipid kinase activity, Kinase-Glo luminescence); format: biochemical; details: Enzymatic assay
# How it was run: (§1)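 IC50s derive from 4-parameter logistic fits of % inhibition across 8 concentrations (usually 10 to 0.003 μM). Lipid kinase reaction: PI3K (10 nM) plus phosphatidylinositol (5 μg/mL) started with 2 μM ATP, stopped near 50% ATP depletion; leftover ATP quantified by Kinase-Glo luminescence.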
# [2] = target: PI3K alpha (Homo sapiens (Human), UniProt P42336); test: Enzymatic PI3K alpha isoform inhibition (lipid kinase activity, Kinase-Glo luminescence); format: biochemical; details: Enzymatic assay
# Sequence of PI3K alpha (P42336 other isoform, or with tags, fused parts or gaps): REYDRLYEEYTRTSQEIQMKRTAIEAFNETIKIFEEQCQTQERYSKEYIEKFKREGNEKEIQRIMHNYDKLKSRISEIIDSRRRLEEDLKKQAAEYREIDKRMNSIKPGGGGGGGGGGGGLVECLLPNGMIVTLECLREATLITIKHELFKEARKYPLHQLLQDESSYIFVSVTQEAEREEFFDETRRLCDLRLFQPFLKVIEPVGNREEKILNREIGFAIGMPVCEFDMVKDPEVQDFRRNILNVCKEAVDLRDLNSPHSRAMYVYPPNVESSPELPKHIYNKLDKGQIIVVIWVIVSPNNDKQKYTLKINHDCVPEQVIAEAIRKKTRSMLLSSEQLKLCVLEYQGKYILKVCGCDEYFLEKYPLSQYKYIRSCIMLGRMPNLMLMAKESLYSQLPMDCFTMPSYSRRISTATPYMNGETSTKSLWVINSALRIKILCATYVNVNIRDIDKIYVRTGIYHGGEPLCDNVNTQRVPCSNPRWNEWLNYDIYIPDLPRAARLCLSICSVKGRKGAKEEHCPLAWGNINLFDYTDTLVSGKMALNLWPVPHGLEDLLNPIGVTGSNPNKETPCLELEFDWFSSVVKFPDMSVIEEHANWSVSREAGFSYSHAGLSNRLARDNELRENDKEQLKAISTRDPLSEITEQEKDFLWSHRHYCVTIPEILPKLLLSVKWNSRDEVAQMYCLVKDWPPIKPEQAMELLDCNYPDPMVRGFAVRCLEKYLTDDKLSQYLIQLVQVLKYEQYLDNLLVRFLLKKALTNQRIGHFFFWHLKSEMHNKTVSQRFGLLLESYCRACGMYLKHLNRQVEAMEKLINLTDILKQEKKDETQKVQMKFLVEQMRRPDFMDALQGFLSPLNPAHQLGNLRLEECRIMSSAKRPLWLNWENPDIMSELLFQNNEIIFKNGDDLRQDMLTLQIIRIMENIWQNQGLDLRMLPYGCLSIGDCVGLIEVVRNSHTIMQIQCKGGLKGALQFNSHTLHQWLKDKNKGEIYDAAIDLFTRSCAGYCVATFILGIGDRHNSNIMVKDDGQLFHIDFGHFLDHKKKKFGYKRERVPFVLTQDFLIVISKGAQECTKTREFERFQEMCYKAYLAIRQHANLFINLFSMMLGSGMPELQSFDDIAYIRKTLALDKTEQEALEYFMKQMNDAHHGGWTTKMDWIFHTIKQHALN
# How it was run: as §1
# Sequence of PI3K delta (O00329 other isoform, or with tags, fused parts or gaps linker GGGGGG): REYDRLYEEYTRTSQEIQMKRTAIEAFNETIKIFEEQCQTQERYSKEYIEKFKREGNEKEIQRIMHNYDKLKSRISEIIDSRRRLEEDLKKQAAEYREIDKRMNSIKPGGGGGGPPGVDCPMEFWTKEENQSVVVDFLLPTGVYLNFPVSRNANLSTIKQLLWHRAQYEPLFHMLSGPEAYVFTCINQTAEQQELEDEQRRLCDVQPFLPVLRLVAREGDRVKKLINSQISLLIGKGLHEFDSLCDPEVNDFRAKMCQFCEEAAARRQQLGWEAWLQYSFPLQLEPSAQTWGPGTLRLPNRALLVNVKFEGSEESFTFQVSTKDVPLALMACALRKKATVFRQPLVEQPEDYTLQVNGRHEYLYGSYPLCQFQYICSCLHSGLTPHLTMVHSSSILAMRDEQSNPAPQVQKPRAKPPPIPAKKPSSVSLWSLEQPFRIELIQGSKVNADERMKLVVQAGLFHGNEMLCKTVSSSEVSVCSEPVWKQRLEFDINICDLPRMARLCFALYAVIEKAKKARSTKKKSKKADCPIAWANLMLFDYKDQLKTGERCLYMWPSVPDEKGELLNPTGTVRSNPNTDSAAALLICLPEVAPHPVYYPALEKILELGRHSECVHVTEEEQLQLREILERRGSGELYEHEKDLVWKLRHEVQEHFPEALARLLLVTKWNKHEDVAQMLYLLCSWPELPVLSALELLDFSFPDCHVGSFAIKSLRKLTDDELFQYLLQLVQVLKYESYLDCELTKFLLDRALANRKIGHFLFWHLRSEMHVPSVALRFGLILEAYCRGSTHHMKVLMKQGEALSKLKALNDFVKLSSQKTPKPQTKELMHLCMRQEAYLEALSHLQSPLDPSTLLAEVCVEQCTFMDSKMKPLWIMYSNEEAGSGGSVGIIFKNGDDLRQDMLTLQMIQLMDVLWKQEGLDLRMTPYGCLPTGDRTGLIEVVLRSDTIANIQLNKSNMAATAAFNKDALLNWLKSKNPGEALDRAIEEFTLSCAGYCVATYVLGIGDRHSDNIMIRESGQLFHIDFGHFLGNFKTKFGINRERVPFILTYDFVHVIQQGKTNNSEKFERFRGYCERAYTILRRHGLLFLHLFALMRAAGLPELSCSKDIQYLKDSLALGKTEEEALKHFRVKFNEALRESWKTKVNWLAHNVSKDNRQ
Compound,IC50 [1],IC50 [2]
"COc1ncc(N2CCOc3ccc(O[C@H]4CCN(C(=O)N5CCOCC5)C4)cc32)cc1C#N [Example D34, 2-Methoxy-5-{6-[(S)-1-(morpholine-4-carbonyl)-pyrrolidin-3-yloxy]-2,3-dihydro-benzo[1,4]oxazin-4-yl}-nicotinonitrile]",9 nM,273 nM
"CS(=O)(=O)c1ncc(N2CCOc3ccc(O[C@H]4CCN(C(=O)C5CCOCC5)C4)cc32)cc1C(F)F [Example B70, {(S)-3-[4-(5-Difluoromethyl-6-methanesulfonyl-pyridin-3-yl)-3,4-dihydro-2H-benzo[1,4]oxazin-6-yloxy]-pyrrolidin-1-yl}-(tetrahydro-pyran-4-yl)-methanone]",3 nM,134 nM
"Cc1cc(N2CCOc3ccc(O[C@H]4CCN(C(=O)C5CCCCC5)C4)cc32)cnc1S(C)(=O)=O [Example B49, Cyclohexyl-{(S)-3-[4-(6-methanesulfonyl-5-methyl-pyridin-3-yl)-3,4-dihydro-2H-benzo[1,4]oxazin-6-yloxy]-pyrrolidin-1-yl}-methanone]",7 nM,450 nM
"COc1ncc(N2CCOc3ccc(O[C@H]4CCN(C(=O)CCO)C4)cc32)cc1F [Example B113, 1-{(S)-3-[4-(5-Fluoro-6-methoxy-pyridin-3-yl)-3,4-dihydro-2H-benzo[1,4]oxazin-6-yloxy]-pyrrolidin-1-yl}-3-hydroxy-propan-1-one]",109 nM,2730 nM
"COc1ncc(N2CCOc3ccc(O[C@H]4CCN(C(=O)c5nnc(C)o5)C4)cc32)cc1C#N [Example C12, 2-Methoxy-5-{6-[(S)-1-(5-methyl-[1,3,4]oxadiazole-2-carbonyl)-pyrrolidin-3-yloxy]-2,3-dihydro-benzo[1,4]oxazin-4-yl}-nicotinonitrile]",116 nM,303 nM
"COc1ncc(N2CCOc3ccc(O[C@H]4CCN(C(=O)C5CCOCC5)C4)cc32)cc1C(F)F [Example B120, {(S)-3-[4-(5-Difluoromethyl-6-methoxy-pyridin-3-yl)-3,4-dihydro-2H-benzo[1,4]oxazin-6-yloxy]-pyrrolidin-1-yl}-(tetrahydro-pyran-4-yl)-methanone]",6 nM,88 nM
"N#Cc1cncc(N2CCOc3ccc(O[C@H]4CCN(C(=O)C5CCOCC5)C4)cc32)c1 [Example A7, 5-{6-[(S)-1-(Tetrahydro-pyran-4-carbonyl)-pyrrolidin-3-yloxy]-2,3-dihydro-benzo[1,4]oxazin-4-yl}-nicotinonitrile]",31 nM,1920 nM
"COc1ncc(N2CCOc3ccc(O[C@H]4CCN(C(=O)C5COCCO5)C4)cc32)cc1C#N (stereo partly drawn) [Example C24, 5-{6-[(S)-1-([1,4]Dioxane-2-carbonyl)-pyrrolidin-3-yloxy]-2,3-dihydro-benzo[1,4]oxazin-4-yl}-2-methoxy-nicotinonitrile]",3 nM,560 nM
"COc1ncc(N2CCOc3ccc(O[C@H]4CCN(C(=O)c5cn(C)cn5)C4)cc32)cc1C [Example B89, {(S)-3-[4-(6-Methoxy-5-methyl-pyridin-3-yl)-3,4-dihydro-2H-benzo[1,4]oxazin-6-yloxy]-pyrrolidin-1-yl}-(1-methyl-1H-imidazol-4-yl)-methanone]",9 nM,133 nM
"COc1ncc(N2CCOc3ccc(O[C@H]4CCN(C(=O)CC(C)(C)C)C4)cc32)cc1C#N [Example D9, 5-{6-[(S)-1-(3,3-Dimethyl-butyryl)-pyrrolidin-3-yloxy]-2,3-dihydro-benzo[1,4]oxazin-4-yl}-2-methoxy-nicotinonitrile]",15 nM,494 nM
"Cc1cc(N2CCOc3ccc(O[C@H]4CCN(S(=O)(=O)C(C)C)C4)cc32)cnc1S(C)(=O)=O [Example B82, 4-(6-Methanesulfonyl-5-methyl-pyridin-3-yl)-6-[(S)-1-(propane-2-sulfonyl)-pyrrolidin-3-yloxy]-3,4-dihydro-2H-benzo[1,4]oxazine]",66 nM,353 nM
"CN(C)S(=O)(=O)c1cncc(N2CCOc3ccc(O[C@H]4CCN(C(=O)C5CCOCC5)C4)cc32)c1 [Example A2, 5-{6-[(S)-1-(Tetrahydro-pyran-4-carbonyl)-pyrrolidin-3-yloxy]-2,3-dihydro-benzo[1,4]oxazin-4-yl}-pyridine-3-sulfonic acid dimethylamide]",6 nM,47 nM
"COc1ncc(N2CC(C)Oc3ccc(O[C@H]4CCN(C(=O)C5CCOCC5)C4)cc32)cc1C#N (stereo partly drawn) [Example O1, 2-Methoxy-5-{2-methyl-6-[(S)-1-(tetrahydro-pyran-4-carbonyl)-pyrrolidin-3-yloxy]-2,3-dihydro-benzo[1,4]oxazin-4-yl}-nicotinonitrile]",53 nM,4570 nM
"COc1ncc(N2CCOc3ccc(O[C@H]4CCN(C(=O)c5cnn6cccnc56)C4)cc32)cc1C#N [Example C22, 2-Methoxy-5-{6-[(S)-1-(pyrazolo[1,5-a]pyrimidine-3-carbonyl)-pyrrolidin-3-yloxy]-2,3-dihydro-benzo[1,4]oxazin-4-yl}-nicotinonitrile]",20 nM,202 nM
"COc1ncc(N2CCOc3ccc(O[C@H]4CCN(C(=O)C5CCS(=O)(=O)C5)C4)cc32)cc1Cl (stereo partly drawn) [Example B105, {(S)-3-[4-(5-Chloro-6-methoxy-pyridin-3-yl)-3,4-dihydro-2H-benzo[1,4]oxazin-6-yloxy]-pyrrolidin-1-yl}-(1,1-dioxo-tetrahydro-1lambda*6*-thiophen-3-yl)-methanone]",20 nM,762 nM
"CCS(=O)(=O)N1CC[C@H](Oc2ccc3c(c2)N(c2cnc(S(C)(=O)=O)c(C)c2)CCO3)C1 [Example B84, 6-((S)-1-Ethanesulfonyl-pyrrolidin-3-yloxy)-4-(6-methanesulfonyl-5-methyl-pyridin-3-yl)-3,4-dihydro-2H-benzo[1,4]oxazine]",80 nM,346 nM
"COc1ncc(N2CCOc3ccc(O[C@H]4CCN(C(=O)c5cn[nH]c5)C4)cc32)cc1C#N [Example C10, 2-Methoxy-5-{6-[(S)-1-(1H-pyrazole-4-carbonyl)-pyrrolidin-3-yloxy]-2,3-dihydro-benzo[1,4]oxazin-4-yl}-nicotinonitrile]",15 nM,147 nM
"COCCC(=O)N1CC[C@H](Oc2ccc3c(c2)N(c2cnc(OC)c(F)c2)CCO3)C1 [Example B114, 1-{(S)-3-[4-(5-Fluoro-6-methoxy-pyridin-3-yl)-3,4-dihydro-2H-benzo[1,4]oxazin-6-yloxy]-pyrrolidin-1-yl}-3-methoxy-propan-1-one]",71 nM,1440 nM
"Cc1cc(N2CCOc3ccc(O[C@H]4CCN(C(=O)c5cn(C)cn5)C4)cc32)cnc1S(C)(=O)=O [Example B8, {(S)-3-[4-(6-Methanesulfonyl-5-methyl-pyridin-3-yl)-3,4-dihydro-2H-benzo[1,4]oxazin-6-yloxy]-pyrrolidin-1-yl}-(1-methyl-1H-imidazol-4-yl)-methanone]",25 nM,188 nM
"Cc1cc(N2CCOc3ccc(O[C@H]4CCN(C(=O)Cc5ccncc5)C4)cc32)cnc1S(C)(=O)=O [Example B68, 1-{(S)-3-[4-(6-Methanesulfonyl-5-methyl-pyridin-3-yl)-3,4-dihydro-2H-benzo[1,4]oxazin-6-yloxy]-pyrrolidin-1-yl}-2-pyridin-4-yl-ethanone]",39 nM,840 nM
"COc1ncc(N2CCOc3ccc(O[C@H]4CCN(C(=O)c5ocnc5C)C4)cc32)cc1C#N [Example D33, 2-Methoxy-5-{6-[(S)-1-(4-methyl-oxazole-5-carbonyl)-pyrrolidin-3-yloxy]-2,3-dihydro-benzo[1,4]oxazin-4-yl}-nicotinonitrile]",8 nM,117 nM
"CCOc1ncc(N2CCOc3ccc(O[C@H]4CCN(C(=O)C5CCS(=O)(=O)CC5)C4)cc32)cc1C [Example B17, (1,1-Dioxo-hexahydro-1lambda*6*-thiopyran-4-yl)-{(S)-3-[4-(6-ethoxy-5-methyl-pyridin-3-yl)-3,4-dihydro-2H-benzo[1,4]oxazin-6-yloxy]-pyrrolidin-1-yl}-methanone]",23 nM,2090 nM
"COc1ncc(N2CCOc3ccc(O[C@H]4CCN(C(=O)c5cncs5)C4)cc32)cc1C#N [Example C14, 2-Methoxy-5-{6-[(S)-1-(thiazole-5-carbonyl)-pyrrolidin-3-yloxy]-2,3-dihydro-benzo[1,4]oxazin-4-yl}-nicotinonitrile]",5 nM,250 nM
"COc1ncc(N2CCOc3ccc(O[C@H]4CCN(C(=O)[C@H]5CC[C@H](O)CC5)C4)cc32)cc1C#N [R, 5-{6-[(S)-1-(4-Hydroxy-cyclohexanecarbonyl)-pyrrolidin-3-yloxy]-2,3-dihydro-benzo[1,4]oxazin-4-yl}-2-methoxy-nicotinonitrile]",11 nM,602 nM
"COc1cc(N2CCOc3ccc(O[C@H]4CCN(C(=O)CCO)C4)cc32)cnc1Cl [Example B57, 1-{(S)-3-[4-(6-Chloro-5-methoxy-pyridin-3-yl)-3,4-dihydro-2H-benzo[1,4]oxazin-6-yloxy]-pyrrolidin-1-yl}-3-hydroxy-propan-1-one]",95 nM,2270 nM
"COc1ncc(N2CCOc3ccc(O[C@H]4CCN(C(=O)Cc5cn(C)cn5)C4)cc32)cc1C#N [Example D37, 2-Methoxy-5-(6-{(S)-1-[2-(1-methyl-1H-imidazol-4-yl)-acetyl]-pyrrolidin-3-yloxy}-2,3-dihydro-benzo[1,4]oxazin-4-yl)-nicotinonitrile]",127 nM,298 nM
"COc1cc(N2CCOc3ccc(O[C@H]4CCN(C(=O)C5CCS(=O)(=O)C5)C4)cc32)cnc1OC (single isomer, unassigned) [Example H9]",11 nM,616 nM
"COc1ncc(N2CCOc3ccc(O[C@H]4CCN(C(=O)[C@H]5CCN(C(C)=O)C5)C4)cc32)cc1C#N [J, 5-{6-[(S)-1-((S)-1-Acetyl-pyrrolidine-3-carbonyl)-pyrrolidin-3-yloxy]-2,3-dihydro-benzo[1,4]-oxazin-4-yl}-2-methoxy-nicotinonitrile]",65 nM,998 nM

# From patent publication US9539260B2, “Dihydro-benzo-oxazine and dihydro-pyrido-oxazine derivatives” (Novartis AG, priority 2012, dated 2017)
